Experimental data as given in patent publication US20250228915A1, “DISTINCT CD8+ T CELL PROGRAMMING IN THE TUMOR MICROENVIRONMENT CONTRIBUTES TO SEX BIAS IN CANCER” (Ohio State Innovation Foundation, priority 2022, published 2025).

What was measured:
[1] = test system: human Tcf7 promoter in EGFP-C1-AR overexpressing HEK293FT cells; settings: AR-transfected HEK293FT, 24 h, 500 ng/mL testosterone or 50 nM DHT; AR dependent (FIG. 7E)
Description: WT or mutated human Tcf7 promoter sequence of one kb upstream from its transcriptional start site was cloned into the pMCS-Red Firefly Luciferase vector (Thermo Fisher). Mutants lacked individual (“Mut 1-4”) or all putative AR binding sites. Briefly, 40,000 HEK293FT cells were grown on a 96 well plate at 80% confluence. […] Renilla luciferase gene expression was used to ensure transfection efficiency (Thermo Fisher). Twenty four hours after transfection, cells were treated with 500 ng/ml testosterone or 50 nM DHT for another 24 hours. Cells were then harvested and luciferase activity was analyzed by using Dual-Luciferase Reporter Assay System (Promega).

[2] = test system: AR-overexpressing Jurkat cells; settings: 100 nM, prolonged stimulation over 9 days (FIG. 14B)
Description: Empty vector and androgen receptor-expressing Jurkat cells were seeded into six well plates (Gibco) at 2×10^5 cells per well and treated with 100 nM testosterone (Sigma) or DHT (Millipore), alongside methanol vehicle control (Thermo Fisher). Every three days, cells were counted using the BioRad TC20 automated cell counter, passaged, and re-stimulated with the same androgen concentrations over a time course of 3, 6, and 9 days.

[3] = test system: MB49 mouse urothelial carcinoma cells; assay: MB49 tumor growth in WT mice under daily vehicle or enzalutamide; type: in vivo; settings: male WT mice, MB49 subcutaneous; enzalutamide 25 mg/kg daily oral gavage from Day 5 vs vehicle (FIG. 5J)
Description: MB49 (a gift from C. Voelkel-Johnson from the Medical University of South Carolina) and BKL171 mouse urothelial carcinoma cells were cultured in Dulbecco's modified Eagle's medium with 10% heat-inactivated fetal bovine serum and 1% penicillin/streptomycin. 5×10^5 tumor cells were resuspended in 100 μL ice cold PBS for subcutaneous injection into the right flank of a mouse. For antibody-mediated T cell depletion experiments, mice were injected intraperitoneally with 200 μg of anti-mouse CD4 (Clone GK1.5, BioXCell) and/or CD8 neutralizing antibodies (Clone 53-6.7, BioXCell), followed by 100 μg thereafter on the indicated days. For experiments involving enzalutamide, mice were treated daily with either vehicle control or enzalutamide (25 mg/kg) in 1% carboxymethylcellulose with 0.1% Tween 80 and 2.5% DMSO through oral gavage starting on Day 5 post MB49 subcutaneous injection. Tumor surface area (width×length mm^2) was measured using an electronic caliper starting on Day 4 post implantation.

[4] = test system: CD8+ T cells (Tcf7, Ar transcripts); assay: qPCR of naïve CD8+ T cells stimulated with testosterone, type I IFN or both; type: cell-based, mouse
Description: Mouse spleens and tumors were mechanically disrupted, with the latter additionally subjected to digestion with 1 mg/mL Collagenase D (Roche) for 30 min at 37° C. while shaken at 125 rpm. Excess volume of ice-cold PBS with 2% bovine serum albumin was used to inactivate the enzymatic activity. Red Blood Cell Lysis Buffer (BioLegend) was utilized on tissues before they were passed through 70 µm filters to prepare single cell suspensions. For cytokine production experiments, cells were re-stimulated by 50 ng/mL PMA (Sigma), 1 μg/mL Ionomycin (Sigma) and 1× Brefeldin A (BioLegend) in a 48-well plate for 2 hours at 37° C. For in vitro cultures, purified CD8^+ T cells were left untreated or stimulated with 50 ng/mL testosterone (Sigma) and/or 50 U/mL mouse IFN alpha A (PBL Assay Science). Cells were stained at 4° C. with eFluor506 fixable viability dye for 10 minutes (Invitrogen), followed by extracellular surface markers and FcR block concurrently for 30 minutes. All intracellular staining was performed using the Foxp3 transcription factor staining kit (Invitrogen) according to the manufacturer's instructions. […]
RNA was extracted from FACS/MACS-isolated CD8^+ T cells and reverse-transcribed using RNeasy Micro Kit (Qiagen) and SuperScript™ IV VILO™ Master Mix with ezDNase™ Enzyme (ThermoFisher Scientific), respectively. Quantitative PCR was performed with the following primers: […]

SMILES	Tcf7 promoter activity (luciferase) [1]	proliferation [2]	tumor growth [3]	Ar expression (qPCR) ([4]; female CD8+ T cells, testosterone (FIG. 7D))	Tcf7 expression (qPCR) ([4]; male CD8+ T cells, acute testosterone exposure, 6 hours (FIG. 7D))
C[C@]12CCC(=O)C[C@@H]1CC[C@@H]1[C@@H]2CC[C@]2(C)[C@@H](O)CC[C@@H]12 [DHT, dihydrotestosterone]	stimulated	decreased proliferation	–	–	–
CNC(=O)c1ccc(N2C(=S)N(c3ccc(C#N)c(C(F)(F)F)c3)C(=O)C2(C)C)cc1F [enzalutamide]	–	–	partial protection against tumor growth	–	–
C[C@]12CC[C@H]3[C@@H](CCC4=CC(=O)CC[C@@]43C)[C@@H]1CC[C@@H]2O [testosterone]	stimulated	decreased proliferation	–	induction of Ar expression	significantly increased
